{"source": "patent US20230070582A1", "about": "“UTILIZATION OF FGF ACTIVATORS IN CULTURE MEDIA” (Yissum Research Development Company of the Hebrew …, priority 2020, published 2023)", "key": {"ovine fibroblasts": {"test_system": "ovine fibroblasts", "test": "XTT cell proliferation assay, ovine fibroblasts 2D culture, gradient concentrations", "format": "cell-based", "conditions": "FIG. 3", "procedure": "The effects of gradient concentration of both small molecules (ID-8 and FK-506) in ranges from about 1-50 μM for ID-8 and about 1-50 nM for FK-506 were tested on ovine fibroblasts 2D culture. Ovine fibroblasts were seeded in 96-well plate at a density of 1000 cells/well. ID-8 and FK-506 in serum free medium were incubated with the fibroblast cells for 48 hours before adding XTT (cell proliferation assay from Biological Industries, Israel) according to company protocol. Colorimetric signal was measured after 8 hours of XTT addition. Blank (medium only) measurements were subtracted from the sample measurements (n=4)."}, "[1]": {"test_system": "Bovine fibroblasts adapted to suspension culture", "test": "Bovine fibroblast cell growth in serum-free suspension culture, cell count on Day 3", "format": "cell-based", "conditions": "Day 3 count, FIG. 1", "procedure": "Effects of ID-8 and/or FK-506 (alone or combined) on bovine fibroblast cell growth were evaluated. Bovine fibroblasts adapted to suspension culture were seeded in 0.3 millions/ml in a total volume of 20 ml in cell culture flasks. The flasks were kept in a shaker incubator with 100 rpm, 37° C., and 5% CO2. Cell counts were done on Day 3 using automatic cell counter (Cellaca®) with APOI staining to eliminate the dead cells from the counts."}, "mouse ESCs": {"test_system": "mouse ESCs", "conditions": "serum-free culture; Miyabayashi et al. 2008; cited from earlier work"}, "FGF pathway": {"test_system": "FGF pathway", "conditions": "by activating ERK pathway; zebrafish heart model; Molina et al. 2009; cited from earlier work"}}, "data": [{"smiles": "COc1ccc(-n2c(C)c([N+](=O)[O-])c3ccc(O)cc32)cc1", "note": "[ID-8]", "values": [{"measurement": "ovine fibroblast cell growth versus control (no FGF)", "setting": "ovine fibroblasts; higher concentrations of ID-8, e.g. 10 μM or 50 μM", "value": "more cell growth than the control"}, {"measurement": "concentration of ID-8 giving the best cell growth (optimal concentration)", "setting": "ovine fibroblasts; in combination with FK-506, 48 hours", "value": "1 to 5", "unit": "µM"}, {"measurement": "effect on bovine fibroblast cell growth as compared to FGF (10 ng/ml)", "setting": "[1]; ID-8 alone 1 μM", "value": "comparable effect"}, {"measurement": "self-renewal of mouse ESCs", "setting": "mouse ESCs", "value": "support self-renewal"}]}, {"smiles": "Cl.O=C1/C(=C/c2ccccc2)C(NC2CCCCC2)c2ccccc21", "note": "(mixture of isomers) [(E/Z)-BCI hydrochloride]", "values": [{"measurement": "effect on FGF pathway", "setting": "FGF pathway", "value": "hyperactivates FGF pathway"}]}, {"smiles": "C=CC[C@@H]1/C=C(\\C)C[C@H](C)C[C@H](OC)[C@H]2O[C@@](O)(C(=O)C(=O)N3CCCC[C@H]3C(=O)O[C@H](/C(C)=C/[C@@H]3CC[C@@H](O)[C@H](OC)C3)[C@H](C)[C@@H](O)CC1=O)[C@H](C)C[C@@H]2OC", "note": "[FK-506, Tacrolimus]", "values": [{"measurement": "effect on ovine fibroblast cell growth", "setting": "ovine fibroblasts; higher concentration of FK-506, e.g. 5 nM, 20 nM or 50 nM, with ID-8 at 1 μM", "value": "did not show significant effect on cell growth"}, {"measurement": "concentration of FK-506 giving the best cell growth (optimal concentration)", "setting": "ovine fibroblasts; in combination with ID-8, 48 hours", "value": "1 to 2", "unit": "nM"}, {"measurement": "effect on bovine fibroblast cell growth as compared to FGF (10 ng/ml)", "setting": "[1]; FK-506 alone 2 nM", "value": "didn't obtain a comparable effect"}]}]}
